According to patent publication US8754060B2, “Methods and compositions for inhibition of axonal degeneration by modulation of the DLK/JNK pathway” (Washington University, priority 2008, dated 2014):

Experiments:
[1] = system: cultured DRG neurons; conditions: morphologically similar to that induced by axotomy (Wang et al. 2000; FIG. 2); cited from earlier work
[2] = system: DRG axons; assay: DRG axotomy model: axon degeneration 24 hours post-axotomy (phase contrast, degeneration index); type: cell-based, mouse
Excerpt: In these experiments, the inventors cultured embryonic mouse dorsal root ganglion cells (DRGs) for 14-16 days to allow their axons to radiate from the central core of cell bodies before severing the axons with a micro-scalpel. […] Axotomized DLK mutant axons have a 65%+/−3.2% (se) decrease in degeneration index (DI) relative to controls (p<0.0001, n=8 individual axotomized DRG cultures per condition, t-test). Vincristine treatment induces 59%+/−6.3% (se) less DI in DLK mutants relative to controls (p<0.002, n=7 DRG cultures per condition, t-test). […] The initially smooth and continuous axonal processes become rough and irregular axon fragments. The extent of axon breakdown was quantified by measuring the fraction of axonal area occupied by fragmented axons (degeneration index, DI). […] Because non-neuronal cells are eliminated in this DRG culture system, we concluded that DLK must be required within neurons themselves for the normal axon degenerative response.
In these experiments, to determine whether the axon degeneration pathway requires either JNK or p38, we used pharmacological inhibitors of each MAP kinase in the DRG axotomy model. Wild-type DRG cultures were treated with the JNK inhibitor SP600215 and the p38 inhibitor SB203580 starting from 24 hours before axotomy and for the remainder of the experiment.
Unless noted, vehicle and inhibitors were added 24 hours pre-axotomy and left on for the duration of the experiment. FIG. 3A: Vehicle (DMSO). FIG. 3B: SB203580 (P38 inhibitor). FIG. 3C: SP600215 (JNK inhibitor). FIG. 3D: SP600215 added 24 hr pre-axotomy, and removed just before axotomy. FIG. 3E: SF600215 added concurrently with axotomy. FIG. 3F: SP600215 added 3 hours post-axotomy. FIG. 3G: SP600215 added concurrent with axotomy and removed 3 hours post-axotomy.

| Compound | axon degeneration triggered by the drug [1] | degeneration of DRG axons following axotomy ([2]; added 3 hours post-axotomy and continued for the rest of the experiment (FIG. 3F)) | degeneration of DRG axons following axotomy ([2]; added 24 hr pre-axotomy, and removed just before axotomy (FIG. 3D)) | degeneration of DRG axons following axotomy ([2]; added concurrent with axotomy and removed 3 hours post-axotomy (FIG. 3G), vs vehicle (DMSO)) | degeneration of DRG axons following axotomy ([2]; added concurrently with axotomy (FIG. 3E)) | degeneration of DRG axons following axotomy ([2]; inhibitor added 24 hours pre-axotomy and left on for the duration of the experiment, 24 hours post-axotomy, vs vehicle (DMSO) (FIG. 3B, 3C)) |
| --- | --- | --- | --- | --- | --- | --- |
| CC[C@]1(O)C[C@H]2CN(CCc3c([nH]c4ccccc34)[C@@](C(=O)OC)(c3cc4c(cc3OC)N(C=O)[C@H]3[C@@](O)(C(=O)OC)[C@H](OC(C)=O)[C@]5(CC)C=CCN6CC[C@]43[C@@H]65)C2)C1 [vincristine] | triggers an axon degeneration |  |  |  |  |  |
| O=C1c2ccccc2-c2n[nH]c3cccc1c23 [SP600215, Anthra[1,9-cd]pyrazol-6(2H)-one; 1,9-pyrazoloanthrone] |  | did not decrease axon degeneration | not protective | significantly less degenerated than A | protective | significantly less degenerated than A |
